pIC50: −log10 of the molar value. “And” between values parts separate entries of the source, which are not always exact repeats. Identical values can stand only once. Like-named read-outs stand apart in the source and are kept apart here.
Molecular target: T1, AR-LBD (Homo sapiens, UniProt P10275)
T1 construct: The pET28a-AR-LBD (622-919) construct; made in house
T1 sequence (P10275 622-919): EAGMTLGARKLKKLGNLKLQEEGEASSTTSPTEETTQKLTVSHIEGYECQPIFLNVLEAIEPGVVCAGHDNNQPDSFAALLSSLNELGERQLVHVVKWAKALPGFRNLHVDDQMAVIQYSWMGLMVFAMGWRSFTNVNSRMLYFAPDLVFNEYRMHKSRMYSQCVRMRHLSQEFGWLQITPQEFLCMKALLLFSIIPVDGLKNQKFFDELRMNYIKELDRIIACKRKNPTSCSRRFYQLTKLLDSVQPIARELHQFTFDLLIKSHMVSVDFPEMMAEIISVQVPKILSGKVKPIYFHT
Test: H^3-DHT radioligand binding assay
Procedure: H^3-DHT Radioligand Binding Assay: The His6-AR-LBD H^3-DHT competition binding assay has been described previously (Fancher et al., Assay Drug Dev Technol. 2016, 14:453-477; Fancher et al., Assay Drug Dev Technol. 2019, 17:364-386). Briefly, 96-well Cu^2+-coated plates (ThermoFisher) were incubated overnight at 4° C. with 5 µg per well His6-AR-LBD in 100 μL of PBS. Unbound His6-AR-LBD was aspirated, the plate was washed 3× with 100 μL of 0.05% Tween 20 in PBS and then blocked with 100 μL of 1 mg/mL BSA in PBS for 1 h. After three more washes with 100 μL of PBS and 0.05% Tween 20, 40 μL of PBS was added to wells followed by […] each of diluted compounds and 100 nM H^3-DHT transferred into the wells using a Matrix pipettor. Compounds were tested between 0.098 to 50 μM in the presence of 10 nM H^3-DHT. After 1 h, compounds and H^3-DHT were aspirated and washed 3× with 0.05% Tween 20 in PBS; 100 μL of Microscint™-20 micro-scintillation cocktail buffer (Perkin Elmer, Waltham, MA) was added to each well, plates were sealed with adhesive plastic covers; and the counts per minute (CPMs) were captured in a TopCount NXT microtiter plate reader (Perkin Elmer, Waltham, MA).

[1] = 10 nM H^3-DHT, read-out: Inhibition H^3-DHT ligand binding to AR-LBD IC50
[2] = read-out: IC50 in H^3-DHT binding assay (potency range in words)

SMILES	pIC50 (10 nM H^3-DHT, listed as 1, read-out: Inhibition H^3-DHT ligand binding to AR-LBD IC50)	pIC50 [1]	pIC50 [2]
Cc1ccccc1-c1cc(O)c2c(c1)CN(c1nc(C(N)=O)cs1)CCO2 [Compound S1-1]	4.57	~4.36 and ~4.57	
Cc1nc(N)cc(N2CCOc3c(O)cc(-c4ccccc4C)cc3C2)n1 [Compound S1-2]		< 4.00	
Cc1ccccc1-c1cc(O)c2c(c1)CN(c1nccs1)CCO2 [Compound S1-3]		< 4.00	
COc1cc(-c2ccc(C)s2)cc2c1OCCN(c1nc(C(N)=O)cs1)C2 [Compound S1-5]		< 4.00	
Cc1nsc(NC(=O)N2CCC(Sc3ccccc3C)CC2)n1 [Compound S2-6]		< 4.00	
Cc1c(-c2ccccc2F)[nH]c2ccc(CNC(=O)CCc3cn[nH]c3)cc12 [Compound S3-11]		< 4.00	
Cc1c(-c2ccccc2F)[nH]c2ccc(CNC(=O)CCc3cnccn3)cc12 [Compound S3-12]		< 4.00	
CC(=O)NCCC(=O)NCc1ccc2[nH]c(-c3ccccc3F)c(C)c2c1 [Compound S3-13]		< 4.00	
Cc1c(-c2ccccc2F)[nH]c2ccc(CNC(=O)c3ccc(CO)o3)cc12 [Compound S3-14]		4.20	4.00 to 5.00
Cc1c(-c2ccc(F)cc2)[nH]c2ccc(CNC(=O)c3ccc(CO)o3)cc12 [Compound S3-15]		< 4.00	
Cc1cccc2c(-c3ccc(O)c(F)c3)c[nH]c12 [Compound S3-17]		4.25	4.00 to 5.00
CNC(=O)c1ccc(-c2c[nH]c3c(C)cccc23)cc1 [Compound S3-21]		< 4.00	

From patent publication US20260083751A1, “ALLOSTERIC MODULATORS OF ANDROGEN RECEPTOR COACTIVATOR RECRUITMENT FOR CRPC THERAPY” (University of Pittsburgh – Of the Commonwealth System of …, priority 2022, published 2026)
